Measurements published in patent US9567339B2, “Primary carboxamides as BTK inhibitors” (AbbVie Inc., priority 2013, dated 2017).
pIC50: −log10 of the molar value. Read-outs that look alike come from different tables or passages of the source.

Molecular target: BTK, recombinant human catalytic domain (aa 393-659) (Homo sapiens (Human), UniProt Q06187)
Experiment: In vitro BTK kinase activity measured by time-resolved fluorescence resonance energy transfer (trFRET)
Assay type: biochemical
Settings: read-out: Btk IC50
[1] = trFRET, 0.001 mM ATP, biotin-TYR1 peptide substrate

Sequence of BTK, recombinant human catalytic domain (aa 393-659) (Q06187 393-659): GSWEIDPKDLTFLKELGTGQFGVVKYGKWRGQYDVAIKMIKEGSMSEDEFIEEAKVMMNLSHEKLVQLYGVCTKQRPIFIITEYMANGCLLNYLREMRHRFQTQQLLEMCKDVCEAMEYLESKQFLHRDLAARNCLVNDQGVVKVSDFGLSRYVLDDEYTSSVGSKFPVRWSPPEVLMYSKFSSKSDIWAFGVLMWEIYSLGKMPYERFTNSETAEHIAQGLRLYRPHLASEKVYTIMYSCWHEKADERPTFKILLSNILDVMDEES

A pIC50 of 6.00 to 7.00 was found for `C=CC(=O)N1CC[C@@H](c2ccc(C(N)=O)c3[nH]c(-c4cnn(C)c4)cc23)C1` [E.9.49] in this work.

A pIC50 greater than 7.00 was found for `C=CC(=O)N[C@@H]1CC[C@@H](c2ccc(C(N)=O)c3[nH]ccc23)C1` [E.9.50] in this work.

A pIC50 of 6.00 to 7.00 was found for `C=CC(=O)N1CCC[C@@H](c2cnc(C(N)=O)c3[nH]ccc23)C1` [E.9.51] in this work.

A pIC50 of 6.00 to 7.00 was found for `C=CC(=O)N1CCC[C@H](c2cnc(C(N)=O)c3[nH]ccc23)C1` [E.9.52] in this work.

A pIC50 of 6.00 to 7.00 was found for `CCC(=O)N1CC[C@H](c2ccc(C(N)=O)c3[nH]c(C)cc23)C1` [E.10.1] in this work.

A pIC50 of 6.00 to 7.00 was found for `CCC(=O)N1CC[C@@H](c2ccc(C(N)=O)c3[nH]c(C)cc23)C1` [E.10.2] in this work.

A pIC50 [1] of 6.00 to 7.00 was found for `Cc1c(NC(=O)c2nccs2)cccc1-c1ccc(C(N)=O)c2[nH]c(-c3ccccc3CN)cc12` [Example 1, N-(3-(2-(2-(aminomethyl)phenyl)-7-carbamoyl-1H-indol-4-yl)-2-methylphenyl)thiazole-2-carboxamide] in this work.

A pIC50 [1] of 5.00 to 6.00 was found for `Cc1c(N)cccc1-c1cnc(C(N)=O)c2[nH]ccc12` [Example 2, 4-(3-Amino-2-methylphenyl)-1H-pyrrolo[2,3-c]pyridine-7-carboxamide] in this work.

A pIC50 [1] of 6.00 to 7.00 was found for `Cc1c(NC(=O)c2nccs2)cccc1-c1ccc(C(N)=O)c2[nH]cc(C)c12` [Example 3, N-(3-(7-carbamoyl-3-methyl-1H-indol-4-yl)-2-methylphenyl)thiazole-2-carboxamide] in this work.

A pIC50 of 6.00 to 7.00 was found for `C=CC(=O)N1CCOC[C@@H](c2cnc(C(N)=O)c3[nH]ccc23)C1` [Example 3.1] in this work.

A pIC50 of 6.00 to 7.00 was found for `C=CC(=O)N1CCOC[C@H](c2cnc(C(N)=O)c3[nH]ccc23)C1` [Example 3.2] in this work.

A pIC50 [1] of 6.00 to 7.00 was found for `C=CC(=O)N1CCc2cc(C(N)=O)c3[nH]ccc3c21` [Example 4, 1-Acryloyl-1,2,3,6-tetrahydropyrrolo[2,3-e]indole-5-carboxamide] in this work.

A pIC50 greater than 7.00 was found for `C=CC(=O)N1CCC[C@@H](c2ccc(C(N)=O)c3[nH]c(-c4cnn(C)c4)cc23)C1` [Example 4.1] in this work.

A pIC50 greater than 7.00 was found for `C=CC(=O)N1CCC[C@H](c2ccc(C(N)=O)c3[nH]c(-c4cnn(C)c4)cc23)C1` [Example 4.2] in this work.

A pIC50 [1] of 5.00 to 6.00 was found for `C=CC(=O)Nc1ccc(C(N)=O)c2[nH]ccc12` [Example 5, 4-Acrylamido-1H-indole-7-carboxamide] in this work.

A pIC50 greater than 7.00 was found for `C=CC(=O)N1CC(N(C)c2ccc(C(N)=O)c3[nH]c([C@@H]4CCOC4)cc23)C1` [Example 5.1] in this work.

A pIC50 greater than 7.00 was found for `C=CC(=O)N1CC(N(C)c2ccc(C(N)=O)c3[nH]c([C@H]4CCOC4)cc23)C1` [Example 5.2] in this work.

A pIC50 [1] greater than 7.00 was found for `C=CC(=O)Nc1cc(NCc2nccs2)cc(-c2ccc(C(N)=O)c3[nH]c(C4=CCN(S(C)(=O)=O)CC4)cc23)c1` [Example 6, 4-(3-Acrylamido-5-(thiazol-2-ylmethylamino)phenyl)-2-(1-(methylsulfonyl)-1,2,3,6-tetrahydropyridin-4-yl)-1H-indole-7-carboxamide] in this work.

A pIC50 [1] of 5.00 to 6.00 was found for `C/C(O)=C(/C#N)C(=O)Nc1cccc(-c2ccc(C(N)=O)c3[nH]ccc23)c1` [Example 7, (E)-4-(3-(2-Cyano-3-hydroxybut-2-enamido)phenyl)-1H -indole-7-carboxamide] in this work.

A pIC50 [1] of 6.00 to 7.00 was found for `CS(=O)(=O)N1CC=C(c2cc3c(N4CCC[C@@H](N5CCCCC5=O)C4)ccc(C(N)=O)c3[nH]2)CC1` [Example 12, (R)-2-(1-(Methylsulfonyl)-1,2,3,6-tetrahydropyridin-4-yl)-4-(2-oxo-1,3′-bipiperidin-1′-yl)-1H-indole-7-carboxamide] in this work.

A pIC50 [1] greater than 7.00 was found for `CS(=O)(=O)N1CC=C(c2cc3c(N4CCC[C@@H](N5CCc6ccccc6C5=O)C4)ccc(C(N)=O)c3[nH]2)CC1` [Example 13, (R)-2-(1-(Methylsulfonyl)-1,2,3,6-tetrahydropyridin-4-yl)-4-(3-(1-oxo-3,4-dihydroisoquinolin-2(1H)-yl)piperidin-1-yl)-1H-indole-7-carboxamide] in this work.

A pIC50 [1] greater than 7.00 was found for `CS(=O)(=O)N1CC=C(c2cc3c(N4CCC[C@@H](NC(=O)c5nccs5)C4)ccc(C(N)=O)c3[nH]2)CC1` [Example 13A, (R)—N-(1-(7-Carbamoyl-2-(1-(methylsulfonyl)-1,2,3,6-tetrahydropyridin-4-yl)-1H-indol-4-yl)piperidin-3-yl)thiazole-2-carboxamide] in this work.

A pIC50 [1] of 6.00 to 7.00 was found for `Cc1c(-c2ccc(C(N)=O)c3[nH]c(-c4cnn(C)c4)nc23)cccc1-n1cnc2ccccc2c1=O` [Example 14, 2-(1-Methyl-1H-pyrazol-4-yl)-4-(2-methyl-3-(4-oxoquinazolin-3(4H)-yl)phenyl)-1H-benzo[d]imidazole-7-carboxamide] in this work.

A pIC50 [1] of 5.00 to 6.00 was found for `N#CCNC(=O)c1cccc(-c2ccc(C(N)=O)c3[nH]ccc23)c1` [Example 15, 4-(3-((Cyanomethyl)carbamoyl)phenyl)-1H-indole-7-carboxamide] in this work.

A pIC50 [1] of 5.00 to 6.00 was found for `Cc1c(N)cccc1-c1ccc(C(N)=O)c2[nH]ccc12` [Example 16, 4-(3-Amino-2-methylphenyl)-1H-indole-7-carboxamide] in this work.

A pIC50 [1] greater than 7.00 was found for `C=CC(=O)Nc1cccc(-c2cnc(C(N)=O)c3[nH]ccc23)c1C` [Example 17, 4-(3-Acrylamido-2-methylphenyl)-1H-pyrrolo[2,3-c]pyridine-7-carboxamide] in this work.

A pIC50 [1] greater than 7.00 was found for `C=CC(=O)Nc1cccc(-c2ccc(C(N)=O)c3[nH]ncc23)c1` [Example 18, 4-(3-Acrylamidophenyl)-1H-indazole-7-carboxamide] in this work.

A pIC50 [1] greater than 7.00 was found for `C=CC(=O)Nc1cccc(-c2ccc(C(N)=O)c3[nH]c(C)cc23)c1` [Example 19, 4-(3-Acrylamidophenyl)-2-methyl-1H-indole-7-carboxamide] in this work.

A pIC50 [1] greater than 7.00 was found for `C=CC(=O)Nc1cccc(-c2ccc(C(N)=O)c3[nH]c(CC)cc23)c1` [Example 20, 4-(3-Acrylamidophenyl)-2-ethyl-1H-indole-7-carboxamide] in this work.

A pIC50 [1] greater than 7.00 was found for `Cc1c(N)cccc1-c1ccc(C(N)=O)c2[nH]c(C3=CCC(F)(F)CC3)cc12` [Example 21, 4-(3-Amino-2-methylphenyl)-2-(4,4-difluorocyclohex-1-enyl)-1H-indole-7-carboxamide] in this work.

A pIC50 [1] greater than 7.00 was found for `C=CC(=O)Nc1cccc(-c2ccc(C(N)=O)c3[nH]c(CCOCC)cc23)c1` [Example 22, 4-(3-Acrylamidophenyl)-2-(2-ethoxyethyl)-1H-indole-7-carboxamide] in this work.

A pIC50 [1] greater than 7.00 was found for `C=CC(=O)Nc1cccc(-c2ccc(C(N)=O)c3[nH]c(CCO)cc23)c1` [Example 23, 4-(3-Acrylamidophenyl)-2-(2-hydroxyethyl)-1H-indole-7-carboxamide] in this work.

A pIC50 [1] greater than 7.00 was found for `C=CC(=O)N1CC(N(C)c2ccc(C(N)=O)c3[nH]ccc23)C1` [Example 24, 4-((1-Acryloylazetidin-3-yl)(methyl)amino)-1H-indole-7-carboxamide] in this work.

A pIC50 [1] of 6.00 to 7.00 was found for `C=CC(=O)N1CCCC(c2ccc(C(N)=O)c3[nH]ccc23)C1` (stereo not drawn) [Example 25, 4-(1-Acryloylpiperidin-3-yl)-1H-indole-7-carboxamide] in this work.

A pIC50 [1] greater than 7.00 was found for `C=CC(=O)N1CCCC(c2ccc(C(N)=O)c3[nH]c(-c4cnn(C)c4)cc23)C1` (stereo not drawn) [Example 26, 4-(1-Acryloylpiperidin 3-yl)-2-(1-methyl-1H-pyrazol-4-yl)-1H-indole-7-carboxamide] in this work.

A pIC50 [1] greater than 7.00 was found for `C=CC(=O)N1CC(Oc2ccc(C(N)=O)c3[nH]ccc23)C1` [Example 27, 4-((1-Acryloylazetidin-3-yl)oxy)-1H-indole-7-carboxamide] in this work.

A pIC50 [1] greater than 7.00 was found for `C=CC(=O)N1CC(N(C)c2cnc(C(N)=O)c3[nH]ccc23)C1` [Example 29, 4-((1-Acryloylazetidin-3-yl)(methyl)amino)-1H-pyrrolo[2,3-c]pyridine-7-carboxamide] in this work.

A pIC50 [1] of 6.00 to 7.00 was found for `NC(=O)c1ccc(I)c2cc(-c3cccnc3)[nH]c12` [F.1, 4-iodo-2-(pyridin-3-yl)-1H-indole-7-carboxamide] in this work.

A pIC50 [1] greater than 7.00 was found for `Cc1c(-c2ccc(C(N)=O)c3[nH]c(C4=CCNC4)cc23)cccc1-n1cnc2ccccc2c1=O` [G.1, 2-(2,5-Dihydro-1H-pyrrol-3-yl)-4-(2-methyl-3-(4-oxoquinazolin-3(4H)-yl)phenyl)-1H-indole-7-carboxamide] in this work.

A pIC50 greater than 7.00 was found for `Cc1c(-c2ccc(C(N)=O)c3[nH]c(C4=CCNCC4)cc23)cccc1-n1cnc2ccccc2c1=O` [G.1.1, 4-(2-methyl-3-(4-oxoquinazolin-3(4H)-yl)phenyl)-2-(1,2,3,6-tetrahydropyridin-4-yl)-1H-indole-7-carboxamide] in this work.

A pIC50 greater than 7.00 was found for `C=C(CN)C(=O)Nc1cccc(-c2ccc(C(N)=O)c3[nH]ccc23)c1` [G.1.2] in this work.

A pIC50 greater than 7.00 was found for `C=C(CNC)C(=O)Nc1cccc(-c2ccc(C(N)=O)c3[nH]ccc23)c1` [G.1.3] in this work.

A pIC50 [1] greater than 7.00 was found for `Cc1c(-c2ccc(C(N)=O)c3[nH]c(C4=CCN(C)C4)cc23)cccc1-n1cnc2ccccc2c1=O` [H.1, 2-(1-Methyl-2,5-dihydro-1H-pyrrol-3-yl)-4-(2-methyl-3-(4-oxoquinazolin-3(4H)-yl)phenyl)-1H-indole-7-carboxamide] in this work.

A pIC50 greater than 7.00 was found for `Cc1c(-c2ccc(C(N)=O)c3[nH]c(C4=CCN(C)CC4)cc23)cccc1-n1cnc2ccccc2c1=O` [H.1.1] in this work.

A pIC50 greater than 7.00 was found for `Cc1c(NCc2nccs2)cccc1-c1ccc(C(N)=O)c2[nH]c(C3=CCN(S(C)(=O)=O)CC3)cc12` [H.2.1, 4-(2-methyl-3-(thiazol-2-ylmethylamino)phenyl)-2-(1-(methylsulfonyl)-1,2,3,6-tetrahydropyridin-4-yl)-1H-indole-7-carboxamide] in this work.

A pIC50 [1] greater than 7.00 was found for `C=CS(=O)(=O)Nc1cccc(-c2ccc(C(N)=O)c3[nH]ccc23)c1` [I.1, 4-(3-(Vinylsulfonamido)phenyl)-1H-indole-7-carboxamide] in this work.

A pIC50 [1] of 6.00 to 7.00 was found for `Cc1c(NC(=O)/C=C/CN(C)C)cccc1-c1ccc(C(N)=O)c2[nH]ccc12` [J.1, (E)-4-(3-(4-(Dimethylamino)but-2-enamido)-2-methylphenyl)-1H-indole-7-carboxamide] in this work.

A pIC50 of 6.00 to 7.00 was found for `Cc1c(NC(=O)/C=C/CN2CCCCC2)cccc1-c1ccc(C(N)=O)c2[nH]ccc12` [J.1.1] in this work.

A pIC50 of 5.00 to 6.00 was found for `COCCNC/C=C/C(=O)Nc1cccc(-c2ccc(C(N)=O)c3[nH]ccc23)c1C` [J.1.3] in this work.

A pIC50 of 6.00 to 7.00 was found for `Cc1c(NC(=O)/C=C/CNC2CC2)cccc1-c1ccc(C(N)=O)c2[nH]ccc12` [J.1.4] in this work.

A pIC50 of 5.00 to 6.00 was found for `Cc1c(NC(=O)/C=C/CN2CCOCC2)cccc1-c1ccc(C(N)=O)c2[nH]ccc12` [J.1.5] in this work.
